Test results taken from PubChem BioAssay (NCI).
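In this assay, cells in 96-well plates receive the compound at five concentrations for 48 hours. Endpoints are linearly interpolated between the surrounding concentrations. At the TGI there is no net growth.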

Assays:
Assay in all cases: NCI-60 cell line screen, 48 h
[1] = test system: LXFL 529 NSCLC
[2] = test system: NCI-H460 lung
[3] = test system: MALME-3M melanoma
[4] = test system: SF-539 CNS
[5] = test system: SNB-78 CNS
[6] = test system: DMS 114 small cell lung
[7] = test system: CCRF-CEM leukemia
[8] = test system: COLO 205 colon
[9] = test system: M14 melanoma
[10] = test system: DLD-1 colon
[11] = test system: NCI-H522 lung
[12] = test system: IGROV1 ovarian
[13] = test system: RPMI-8226 leukemia
[14] = test system: SK-MEL-28 melanoma
[15] = test system: RXF 393 renal
[16] = test system: SW-620 colon
[17] = test system: DU-145 prostate
[18] = test system: A549 NSCLC
[19] = test system: MDA-N
[20] = test system: EKVX NSCLC
[21] = test system: ACHN renal
[22] = test system: HCT-116 colon
[23] = test system: LOX IMVI melanoma
[24] = test system: SF-268 CNS
[25] = test system: MCF7 breast
[26] = test system: 786-0 renal
[27] = test system: MOLT-4 leukemia
[28] = test system: KM20L2 colon
[29] = test system: SNB-75 CNS
[30] = test system: SK-MEL-2 melanoma
[31] = test system: PC-3 prostate
[32] = test system: HOP-92 NSCLC
[33] = test system: K-562 leukemia
[34] = test system: HT29 colon
[35] = test system: UACC-257 melanoma
[36] = test system: HOP-62 NSCLC
[37] = test system: M19-MEL melanoma
[38] = test system: U251 CNS
[39] = test system: HS 578T breast
[40] = test system: A498 renal
[41] = test system: UO-31 renal
[42] = test system: SK-OV-3 ovarian
[43] = test system: HCC-2998 colon
[44] = test system: NCI-H23 lung
[45] = test system: OVCAR-3 ovarian
[46] = test system: SN12C renal
[47] = test system: CAKI-1 renal
[48] = test system: HCT-15 colon
[49] = test system: BT-549 breast
[50] = test system: SNB-19 CNS
[51] = test system: SK-MEL-5 melanoma
[52] = test system: XF 498 CNS
[53] = test system: NCI/ADR-RES ovarian
[54] = test system: SF-295 CNS
[55] = test system: T-47D breast
[56] = test system: OVCAR-5 ovarian
[57] = test system: MDA-MB-231 breast
[58] = test system: OVCAR-4 ovarian
[59] = test system: SR leukemia
[60] = test system: KM12 colon
[61] = test system: MDA-MB-435
[62] = test system: HOP-18 NSCLC
[63] = test system: NCI-H226 lung
[64] = test system: DMS 273 small cell lung
[65] = test system: TK-10 renal
[66] = test system: HL-60(TB) leukemia
[67] = test system: OVCAR-8 ovarian
[68] = test system: UACC-62 melanoma

O=CN/C=C/c1cccc(O)c1
TGI [1]: > 100 µM
TGI [2]: 77.6 µM
TGI [3]: > 100 µM
TGI [4]: > 83 µM
TGI [5]: > 100 µM
TGI [6]: > 100 µM
TGI [7]: > 100 µM
TGI [8]: > 100 µM
TGI [9]: > 88.2 µM
TGI [10]: > 100 µM
TGI [11]: 65.4 µM
TGI [12]: > 88.2 µM
TGI [13]: > 100 µM
TGI [14]: > 100 µM
TGI [15]: 85.1 µM
TGI [16]: 98.8 µM
TGI [17]: > 97.5 µM
TGI [18]: 79.7 µM
TGI [19]: > 85 µM
TGI [20]: > 96.6 µM
TGI [21]: 84.6 µM
TGI [22]: 75.6 µM
TGI [23]: 69.1 µM
TGI [24]: > 93.4 µM
TGI [25]: > 68.4 µM
TGI [26]: 83.7 µM
TGI [27]: > 100 µM
TGI [28]: > 100 µM
TGI [29]: > 92.5 µM
TGI [30]: > 81.6 µM
TGI [31]: > 100 µM
TGI [32]: > 97.1 µM
TGI [33]: > 100 µM
TGI [34]: 74.8 µM
TGI [35]: > 89.2 µM
TGI [36]: 65.8 µM
TGI [37]: > 100 µM
TGI [38]: > 83 µM
TGI [39]: > 95.1 µM
TGI [40]: > 76.8 µM
TGI [41]: > 83.2 µM
TGI [42]: > 100 µM
TGI [43]: > 100 µM
TGI [44]: 72.4 µM
TGI [45]: > 100 µM
TGI [46]: > 100 µM
TGI [47]: > 79.7 µM
TGI [48]: > 100 µM
TGI [49]: 58.5 µM
TGI [50]: > 100 µM
TGI [51]: > 75.6 µM
TGI [52]: > 100 µM
TGI [53]: > 100 µM
TGI [54]: > 63.1 µM
TGI [55]: 98.7 µM
TGI [56]: > 96.1 µM
TGI [57]: 99.2 µM
TGI [58]: > 93.8 µM
TGI [59]: > 75.2 µM
TGI [60]: > 100 µM
TGI [61]: > 100 µM
TGI [62]: > 100 µM
TGI [63]: 89.2 µM
TGI [64]: > 100 µM
TGI [65]: > 100 µM
TGI [66]: > 100 µM
TGI [67]: > 96.1 µM
TGI [68]: 63.3 µM
